Source: patent US20240034727A1, “IMIDAZOLE COMPOUNDS AS INHIBITORS OF ENPP1” (STINGRAY THERAPEUTICS, INC., priority 2020, published 2024)

Target: Recombinant Human ENPP-1 Protein (Homo sapiens (Human), UniProt P22413)
Assay: ENPP1 Inhibition Assay
Type: biochemical
Details: substrate Thymidine 5′-monophosphate p-nitrophenol ester; pH 9.0; 37° C. for 45 minutes; absorbance at 405 nm
Experimental: Assay Buffer: 1 mM CaCl2), 0.2 mM ZnCl2, 50 mM Tris, pH 9.0. Substrate: 8 mM Thymidine 5′-monophosphate p-nitrophenol ester sodium salt (Sigma Cat #T4510). Enzyme: […] Recombinant Human ENPP-1 Protein (R&D Cat #6136-EN-010) in DMSO in 96-well clear assay plates.
An eight point serial dilution of drugs was prepared in 10× in assay buffer with the final assay concentrations starting at 10 μM, 3 μM, 1 μM, 0.3 μM and 0 μM. A dilution of DMSO was included as a control. The assay plate was set up as follows with each well in duplicate: 81 μL assay buffer+10 μL ENPP1 inhibitor or DMSO+5 μL Substrate+4 μL Enzyme. Both the enzyme and substrate was added to opposite sides of the well to ensure that there was no interaction until all wells had both components. The plate was then centrifuged gently for 10 seconds, followed by an incubation at 37° C. for 45 minutes. The reaction was quantified by measuring absorbance at 405 nm using the Envision.
IC50 values are determined using GraphPad Prism 5 software. The data were entered as an X-Y plot into the software as percent inhibition for each concentration of the drug. The concentration values of the drug were log transformed and the nonlinear regression was carried out using the “sigmoidal dose-response (variable slope)” option within the GraphPad software to model the data and calculate IC50 values. The IC50 values reported are the concentration of drug at which 50% inhibition was reached.

Sequence of Recombinant Human ENPP-1 Protein (P22413 whole entry): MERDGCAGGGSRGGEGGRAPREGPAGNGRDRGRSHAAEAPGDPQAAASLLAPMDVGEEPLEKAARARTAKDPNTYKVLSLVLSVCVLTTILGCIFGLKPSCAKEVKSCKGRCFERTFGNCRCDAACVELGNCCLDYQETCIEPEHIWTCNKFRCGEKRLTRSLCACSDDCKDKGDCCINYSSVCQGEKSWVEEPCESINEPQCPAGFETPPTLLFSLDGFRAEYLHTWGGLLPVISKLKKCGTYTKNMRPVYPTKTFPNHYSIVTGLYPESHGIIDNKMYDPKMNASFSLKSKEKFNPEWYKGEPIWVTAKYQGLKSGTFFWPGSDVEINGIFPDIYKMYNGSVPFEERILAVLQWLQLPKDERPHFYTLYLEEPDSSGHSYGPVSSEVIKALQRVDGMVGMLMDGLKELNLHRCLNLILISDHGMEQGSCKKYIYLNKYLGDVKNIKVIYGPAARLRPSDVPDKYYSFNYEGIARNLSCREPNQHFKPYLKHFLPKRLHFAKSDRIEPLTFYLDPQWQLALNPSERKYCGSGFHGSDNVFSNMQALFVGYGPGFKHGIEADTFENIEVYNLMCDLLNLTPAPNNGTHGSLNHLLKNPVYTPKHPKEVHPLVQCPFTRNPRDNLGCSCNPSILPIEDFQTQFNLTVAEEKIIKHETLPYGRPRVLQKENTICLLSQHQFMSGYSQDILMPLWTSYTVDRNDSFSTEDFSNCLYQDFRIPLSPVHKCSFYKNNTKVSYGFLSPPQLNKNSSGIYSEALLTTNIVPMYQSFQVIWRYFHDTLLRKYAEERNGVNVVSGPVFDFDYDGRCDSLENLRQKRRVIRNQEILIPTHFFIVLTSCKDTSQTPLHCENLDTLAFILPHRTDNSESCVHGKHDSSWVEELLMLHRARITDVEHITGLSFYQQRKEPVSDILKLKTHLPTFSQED

Compound: COc1ccc(NC(=O)CSc2nc(C(N)=O)c[nH]2)cc1OC [Compound I-1, 2-((2-((3,4-dimethoxyphenyl)amino)-2-oxoethyl)thio)-1H-imidazole-4-carboxamid]
- IC50: < 0.2 µM

Compound: COc1ccc(NC(=O)CSc2nc(C(=O)O)c[nH]2)c(OC)c1OC [Compound I-26, 2-((2-oxo-2-((2,3,4-trimethoxyphenyl)amino)ethyl)thio)-1H-imidazole-4-carboxylic acid]
- IC50: > 10 µM

Compound: COc1ccc(NC(=O)CSc2nc(C(=O)OCCN(C)C)c[nH]2)cc1OC [Compound I-29, 2-(dimethylamino)ethyl 2-((2-((3,4-dimethoxyphenyl)amino)-2-oxoethyl)thio)-1H-imidazole-4-carboxylate]
- IC50: 0.2 to 10 µM

Compound: COc1ccc(NC(=O)CSc2nc(C(=O)O)c[nH]2)cc1C#N [Compound I-33, 2-((2-((3-cyano-4-methoxyphenyl)amino)-2-oxoethyl)thio)-1H-imidazole-4-carboxylic acid]
- IC50: < 0.2 µM

Compound: COc1ccc(NC(=O)CSc2nc(C(=O)O)c[nH]2)cc1OC [Compound I-3, 2-((2-((3,4-dimethoxyphenyl)amino)-2-oxoethyl)thio)-1H-imidazole-4-carboxylic acid]
- IC50: < 0.2 µM

Compound: CCOC(=O)c1c[nH]c(SCC(=O)Nc2ccc(OC)c(OC)c2)n1 [Compound I-6, ethyl 2-((2-((3,4-dimethoxyphenyl)amino)-2-oxoethyl)thio)-1H-imidazole-4-carboxylate]
- IC50: < 0.2 µM

Compound: COc1ccc(NC(=O)CSc2nc(C(=O)O)c[nH]2)cc1Br [Compound I-34, 2-((2-((3-bromo-4-methoxyphenyl)amino)-2-oxoethyl)thio)-1H-imidazole-4-carboxylic acid]
- IC50: < 0.2 µM

Compound: Cc1ccc(F)c(NC(=O)CSc2nc(C(=O)O)c[nH]2)c1 [Compound I-17, 2-((2-((2-fluoro-5-methylphenyl)amino)-2-oxoethyl)thio)-1H-imidazole-4-carboxylic acid]
- IC50: > 10 µM

Compound: COc1ccc(NC(=O)CSc2nc(C(=O)O)c[nH]2)cc1F [Compound I-10, 2-((2-((3-fluoro-4-methoxyphenyl)amino)-2-oxoethyl)thio)-1H-imidazole-4-carboxylic acid]
- IC50: < 0.2 µM

Compound: COc1cc(NC(=O)CSc2nc(C(=O)O)c[nH]2)c(OC)cc1Cl [Compound I-27, 2-((2-((4-chloro-2,5-dimethoxyphenyl)amino)-2-oxoethyl)thio)-1H-imidazole-4-carboxylic acid]
- IC50: 0.2 to 10 µM

Compound: COc1ccc(NC(=O)CSc2nc(C#N)c[nH]2)cc1OC [Compound I-4, 2-((4-cyano-1H-imidazol-2-yl)thio)-N-(3,4-dimethoxyphenyl)acetamide]
- IC50: < 0.2 µM

Compound: COc1ccc(Oc2ccc(NC(=O)CSc3nc(C(=O)O)c[nH]3)cc2)cc1 [Compound I-16, 2-((2-((4-(4-methoxyphenoxy)phenyl)amino)-2-oxoethyl)thio)-1H-imidazole-4-carboxylic acid]
- IC50: 0.2 to 10 µM

Compound: O=C(CSc1nc(C(=O)O)c[nH]1)Nc1ccc(N2CCOCC2)cc1 [Compound I-24, 2-((2-((4-morpholinophenyl)amino)-2-oxoethyl)thio)-1H-imidazole-4-carboxylic acid]
- IC50: > 10 µM

Compound: O=C(CSc1nc(C(=O)O)c[nH]1)Nc1c(Cl)cccc1Cl [Compound I-18, 2-((2-((2,6-dichlorophenyl)amino)-2-oxoethyl)thio)-1H-imidazole-4-carboxylic acid]
- IC50: > 10 µM

Compound: O=C(CSc1nc(C(=O)O)c[nH]1)Nc1ccc(Cl)cc1F [Compound I-7, 2-((2-((4-chloro-2-fluorophenyl)amino)-2-oxoethyl)thio)-1H-imidazole-4-carboxylic acid]
- IC50: 0.2 to 10 µM

Compound: CNC(=O)c1c[nH]c(SCC(=O)Nc2ccc(OC)c(OC)c2)n1 [Compound I-2, 2-((2-((3,4-dimethoxyphenyl)amino)-2-oxoethyl)thio)-N-methyl-1H-imidazole-4-carboxamide]
- IC50: 0.2 to 10 µM

Compound: O=C(CSc1nc(C(=O)O)c[nH]1)Nc1c(F)cccc1F [Compound I-13, 2-((2-((2,6-difluorophenyl)amino)-2-oxoethyl)thio)-1H-imidazole-4-carboxylic acid]
- IC50: > 10 µM

Compound: COc1ccc(NC(=O)CSc2nc(-c3nnn[nH]3)c[nH]2)cc1OC [Compound I-28, 2-((4-(1H-tetrazol-5-yl)-1H-imidazol-2-yl)thio)-N-(3,4-dimethoxyphenyl)acetamide]
- IC50: < 0.2 µM

Compound: COc1cc(NC(=O)CSc2nc(C(=O)O)c[nH]2)cc(OC)c1 [Compound I-25, 2-((2-((3,5-dimethoxyphenyl)amino)-2-oxoethyl)thio)-1H-imidazole-4-carboxylic acid]
- IC50: 0.2 to 10 µM

Compound: O=C(CSc1nc(C(=O)O)c[nH]1)Nc1ccc(Br)cc1 [Compound I-23, 2-((2-((4-bromophenyl)amino)-2-oxoethyl)thio)-1H-imidazole-4-carboxylic acid]
- IC50: 0.2 to 10 µM

Compound: Cc1ccc(NC(=O)CSc2nc(C(=O)O)c[nH]2)cc1C [Compound I-31, 2-((2-((3,4-dimethylphenyl)amino)-2-oxoethyl)thio)-1H-imidazole-4-carboxylic acid]
- IC50: > 10 µM

Compound: O=C(CSc1nc(C(=O)O)c[nH]1)Nc1ccc(Cl)cc1 [Compound I-20, 2-((2-((4-chlorophenyl)amino)-2-oxoethyl)thio)-1H-imidazole-4-carboxylic acid]
- IC50: 0.2 to 10 µM

Compound: COc1cc(NC(=O)CSc2nc(C(=O)O)c[nH]2)ccc1Cl [Compound I-14, 2-((2-((4-chloro-3-methoxyphenyl)amino)-2-oxoethyl)thio)-1H-imidazole-4-carboxylic acid]
- IC50: < 0.2 µM

Compound: COc1ccc(CNC(=O)CSc2nc(C(=O)O)c[nH]2)c(OC)c1 [Compound I-15, 2-((2-((2,4-dimethoxybenzyl)amino)-2-oxoethyl)thio)-1H-imidazole-4-carboxylic acid]
- IC50: > 10 µM

Compound: COc1ccc(CNC(=O)CSc2nc(C(=O)O)c[nH]2)cc1OC [Compound I-32, 2-((2-((3,4-dimethoxybenzyl)amino)-2-oxoethyl)thio)-1H-imidazole-4-carboxylic acid]
- IC50: 0.2 to 10 µM

Compound: COc1ccc(NC(=O)CSc2nc(/C(N)=N/O)c[nH]2)cc1OC [Compound I-5, (Z)-N-(3,4-dimethoxyphenyl)-2-((4-(N′-hydroxycarbamimidoyl)-1H-imidazol-2-yl)thio)acetamide]
- IC50: < 0.2 µM

Compound: COc1ccc(Br)cc1NC(=O)CSc1nc(C(=O)O)c[nH]1 [Compound I-36, 2-((2-((5-bromo-2-methoxyphenyl)amino)-2-oxoethyl)thio)-1H-imidazole-4-carboxylic acid]
- IC50: 0.2 to 10 µM

Compound: COc1ccc(NC(=O)CSc2nc(C(=O)OCC(O)CO)c[nH]2)cc1OC (stereo not drawn) [Compound I-30, 2,3-dihydroxypropyl 2-((2-((3,4-dimethoxyphenyl)amino)-2-oxoethyl)thio)-1H-imidazole-4-carboxylate]
- IC50: < 0.2 µM

Compound: COc1ccc(CNC(=O)CSc2nc(C(=O)O)c[nH]2)cc1 [Compound I-37, 2-((2-((4-methoxybenzyl)amino)-2-oxoethyl)thio)-1H-imidazole-4-carboxylic acid]
- IC50: 0.2 to 10 µM

Compound: Cc1cccc(NC(=O)CSc2nc(C(=O)O)c[nH]2)c1C [Compound I-19, 2-((2-((2,3-dimethylphenyl)amino)-2-oxoethyl)thio)-1H-imidazole-4-carboxylic acid]
- IC50: > 10 µM

Compound: O=C(CSc1nc(C(=O)O)c[nH]1)NCc1ccc(Cl)cc1 [Compound I-22, 2-((2-((4-chlorobenzyl)amino)-2-oxoethyl)thio)-1H-imidazole-4-carboxylic acid]
- IC50: > 10 µM

Compound: COc1ccc(NC(=O)CSc2nc(C(=O)O)c[nH]2)c(OC)c1F [Compound I-9, 2-((2-((3-fluoro-2,4-dimethoxyphenyl)amino)-2-oxoethyl)thio)-1H-imidazole-4-carboxylic acid]
- IC50: > 10 µM

Compound: O=C(CSc1nc(C(=O)O)c[nH]1)NCc1cccc(Br)c1 [Compound I-11, 2-((2-((3-bromobenzyl)amino)-2-oxoethyl)thio)-1H-imidazole-4-carboxylic acid]
- IC50: > 10 µM
